Data as given in US20240207258A1, “HETEROCYCLIC PDK1 INHIBITORS FOR USE TO TREAT CANCER” (Viracta Therapeutics, Inc., priority 2015, published 2024).

Key:
[1] = tested on: U-2932; experiment: MTS cell proliferation assay, U-2932; assay type: cell-based; conditions: Homo sapiens, U2932; U-2932, 72 hr
Procedure: Cell proliferation was measured using the CellTiter 96 Aqueous Non-Radioactive Cell Proliferation Assay (Promega). The CellTiter 96® AQueous Assay is composed of solutions of a tetrazolium compound [3-(4,5-dimethylthiazol-2-yl)-5-(3-carboxymethoxyphenyl)-2-(4-sulfophenyl)-2H-tetrazolium, inner salt; MTS] and an electron coupling reagent (phenazine methosulfate) PMS. MTS is bioreduced by cells into a formazan product that is soluble in tissue culture medium. The absorbance of the formazan product at 490 nm can be measured directly from assay plates without additional processing. The quantity of formazan product as measured by the amount of 490 nm absorbance is directly proportional to the number of living cells in culture. Cells were seeded into 96-well or 384-well clear plates in a volume of 200 μL (96-well) or 50 μL (384-well) at optimized densities ranging from 1,000 to 40,000 cells per well for 96-well plates or 1,200 to 25,000 cells per well for 384-well plates depending on cell-line. After 4-6 hr recovery, serially diluted compounds in DMSO were added to the cells using (0.1% v/v final DMSO concentration). Cells were then grown at 37° C. in a humidified incubator with 5% CO2 for 72 hr. A 20:1 [3-(4,5-dimethylthiazol-2-yl)-5-(3-carboxymethoxyphenyl)-2-(4-sulfophenyl)-2H-tetrazolium](MTS):phenazine methosulfate (PMS) solution in DPBS was made immediately before use, added to each well, and cells were incubated for 1.5 hr at 37° C. The absorbance at 490 nm was then measured using a platereader. Absorbance values were normalized as percent of control (cells incubated in the presence of 0.1% v/v DMSO). Sigmoidal dose-response curves were plotted using log(inhibitor) vs. response—Variable slope (four parameters) model with a top value constrained to 100% (GraphPad Prism version 6.00 for Windows, GraphPad Software, La Jolla California USA). […] Curves for compounds that reached a plateau were matched exactly to the measurement points. […] To determine potential of compounds of the invention to affect viability of hematological cancers, cell lines representing various tumor types were selected and tested. Human cell lines tested were: MOLM-13 (acute myeloid leukemia (AML)), MV4-11 (AML), U-2932 (ABC-diffuse large B cell lymphoma), U-937 (histiocytic lymphoma), U-266 (multiple myeloma), RPMI-8226 (multiple myeloma), CMK (megakaryoblastic cell line), SU-DHL-4 (GCB-diffuse large B cell lymphoma), KG1 (AML), Mec-1 (chronic B-cell leukemia), MOLM-16 (AML), Jeko (B-cell lymphoma), WSU-DLCL2 (B-cell lymphoma), JJN3 (plasma cell leukemia), SU-DHL-6 (GCB-diffuse large B cell lymphoma), and Z-138 (mantle cell lymphoma). In addition, two murine cell lines were tested: A20 […].

[2] = tested on: Z-138; experiment: MTS cell proliferation assay, Z-138; assay type: cell-based; conditions: Homo sapiens; Z-138, 72 hr
Procedure: Cell proliferation was measured using the CellTiter 96 Aqueous Non-Radioactive Cell Proliferation Assay (Promega). The CellTiter 96® AQueous Assay is composed of solutions of a tetrazolium compound [3-(4,5-dimethylthiazol-2-yl)-5-(3-carboxymethoxyphenyl)-2-(4-sulfophenyl)-2H-tetrazolium, inner salt; MTS] and an electron coupling reagent (phenazine methosulfate) PMS. MTS is bioreduced by cells into a formazan product that is soluble in tissue culture medium. The absorbance of the formazan product at 490 nm can be measured directly from assay plates without additional processing. The quantity of formazan product as measured by the amount of 490 nm absorbance is directly proportional to the number of living cells in culture. Cells were seeded into 96-well or 384-well clear plates in a volume of 200 μL (96-well) or 50 μL (384-well) at optimized densities ranging from 1,000 to 40,000 cells per well for 96-well plates or 1,200 to 25,000 cells per well for 384-well plates depending on cell-line. After 4-6 hr recovery, serially diluted compounds in DMSO were added to the cells using (0.1% v/v final DMSO concentration). Cells were then grown at 37° C. in a humidified incubator with 5% CO2 for 72 hr. A 20:1 [3-(4,5-dimethylthiazol-2-yl)-5-(3-carboxymethoxyphenyl)-2-(4-sulfophenyl)-2H-tetrazolium](MTS):phenazine methosulfate (PMS) solution in DPBS was made immediately before use, added to each well, and cells were incubated for 1.5 hr at 37° C. The absorbance at 490 nm was then measured using a platereader. Absorbance values were normalized as percent of control (cells incubated in the presence of 0.1% v/v DMSO). Sigmoidal dose-response curves were plotted using log(inhibitor) vs. response—Variable slope (four parameters) model with a top value constrained to 100% (GraphPad Prism version 6.00 for Windows, GraphPad Software, La Jolla California USA). […] Curves for compounds that reached a plateau were matched exactly to the measurement points. […]

[3] = molecular target: T1, Full-length PDK1 (Homo sapiens, UniProt O15530); experiment: PDK1 kinase activity assay (FRET); assay type: biochemical; conditions: for inhibition of PDK1 kinase activity: phosphorylated and un-phosphorylated PDK1, FIGS. 2A and 2B
T1 construct: Full-length PDK1 protein (SignalChem) was dephosphorylated; purchased SignalChem
T1 sequence (O15530 1-556): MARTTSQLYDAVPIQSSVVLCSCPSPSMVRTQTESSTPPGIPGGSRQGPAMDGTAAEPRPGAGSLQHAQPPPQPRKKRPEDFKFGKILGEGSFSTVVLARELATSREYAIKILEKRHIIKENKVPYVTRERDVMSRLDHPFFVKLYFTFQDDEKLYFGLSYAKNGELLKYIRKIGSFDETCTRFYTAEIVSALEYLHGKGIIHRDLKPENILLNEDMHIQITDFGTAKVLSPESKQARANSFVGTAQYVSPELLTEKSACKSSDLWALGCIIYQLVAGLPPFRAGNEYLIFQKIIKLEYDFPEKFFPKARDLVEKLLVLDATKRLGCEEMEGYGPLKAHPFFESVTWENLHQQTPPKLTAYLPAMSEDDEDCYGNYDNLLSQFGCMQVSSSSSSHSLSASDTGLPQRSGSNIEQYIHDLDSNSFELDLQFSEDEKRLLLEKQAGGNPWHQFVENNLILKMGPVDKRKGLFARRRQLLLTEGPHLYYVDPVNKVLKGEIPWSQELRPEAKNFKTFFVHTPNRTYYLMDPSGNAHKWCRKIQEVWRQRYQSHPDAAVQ
Procedure: Full-length PDK1 protein (SignalChem) was dephosphorylated using GST-k-phosphatase (produced in house), which was subsequently removed using glutathione-agarose beads (Gold Biotechnology). […] Tb-pCrosstide antibody (ThermoFisher) was then added to a final concentration of 2 nM and the reaction was incubated for an additional 30 min. Fluorescence resonance energy transfer (FRET) was measured using a Tecan Infinite F500 plate reader with λex=340 nm, λem1=485 nm, λem2=520 nm.

[4] = tested on: panel of 270 different human kinases; experiment: Kinase selectivity panel (Upstate/Millipore); assay type: biochemical; conditions: 10 μM, panel of 270 kinases
Procedure: The selectivity of Compound 1 and Compound 2 was evaluated in a panel of 270 different human kinases offered by Upstate (now Millipore).

Structure (SMILES) | EC50 [1] [nM] | EC50 [2] [nM] | inhibition of PDK1 kinase activity [3] | number of kinases with inhibition greater than or equal to 90% (including PDK1) [4] | biochemical potency compared to GSK2334470 [3]
C[C@H](NC(=O)c1nc(C#N)cnc1NCc1ccc(-c2cnc3[nH]nc(N)c3n2)cc1)c1ccc(F)c(F)c1 [Compound 1, 3-[4-(3-Amino-1H-pyrazolo[3,4-b]pyrazin-5-yl)-benzylamino]-6-cyano-pyrazine-2-carboxylic acid [1-(3,4-difluoro-phenyl)-ethyl]-amide] | 108 | 718 | potent inhibitors of both phosphorylated and un-phosphorylated PDK1 | 18 | 
CNc1n[nH]c2ncc(-c3ccc(CNc4ncc(C#N)nc4C(=O)N[C@@H](C)c4ccc(F)c(F)c4)cc3)cc12 [Compound 2, 6-Cyano-3-[4-(3-methylamino-1H-pyrazolo[3,4-b]pyridin-5-yl)-benzylamino]-pyrazine-2-carboxylic acid [1-(3,4-difluoro-phenyl)-ethyl]-amide] | 56 | 684 | potent inhibitors of both phosphorylated and un-phosphorylated PDK1 | 20 | comparable biochemical potency
